# Data published in patent publication US9034906B2, “EP4 agonist” (Asahi Glass Company, Limited, priority 2008, dated 2015).
# Tests used:
# eye = assay: Local irritative effect on the eye in rabbits; type: in vivo; settings: rabbit, single ocular instillation
# Procedure: Japanese white rabbits (male, 10 weeks old, BIOTEC Co., Ltd.) were purchased, acclimated for 1 week and used for the study. Compound F solution (0.01 w/v %) was instilled once into the cornea of both eyes at a volume of 50 μL/eye with a micropipette. The intraocular pressure of the right eye was measured and the local irritative effect on the eye was evaluated using the left eye. After surface anesthesia with oxybupranol (Benoxil 0.4% instillation solution), the intraocular pressure was measured before ocular instillation and 1, 2, 3, 4, 6 and 8 hr after the instillation using a pneumatonometer (Alcon Ltd.). In addition, the local irritative effect on the eye was evaluated by scoring conjunctival congestion, conjunctival edema, cornea opacity, iris congestion, excretion and eye closure performance. For the evaluation, phosphate buffer was used for the solvent control group, and isopropyl unoprostone (Rescula eye drops, Santen Pharmaceutical Co., Ltd.) was used for comparison. Six animals were used for each group and the results were expressed as average.
# [1] = tested on: ethanol-induced gastric mucosal injury; assay: Ethanol-induced gastric mucosal injury model in rats; type: in vivo, rat; settings: SD rats, 30 min before ethanol
# From the text: The suppressive effect of compound F on gastric mucosal injury was investigated in ethanol-induced gastric mucosal injury model in rats. This model is frequently used as an animal model of human acute gastritis associated with congestive mucosal injury (Reference K).
# Male SD rats (7 weeks old, Charles River) were purchased through Oriental BioService Inc., acclimated for 1 week and used for the study. The rats were grouped based on the body weight, placed in a clean cage set with a wire mesh floor one day before the study, fasted for 19 hr (without water for last 3 hr), and orally administered with ethanol (special grade, Nacalai Tesque, Lot No. V8A5862, 1.5 mL) in all groups to induce gastric mucosal injury. Compound F was orally administered at doses of 0.01, 0.1 and 1 mg/kg 30 min before induction of gastric mucosal injury at a volume of 5 mL/kg. To the control group was orally administered a solvent (1 vol % ethanol solution) at 5 mL/kg in the same manner. Eight animals were used for each group.
# The rats were bled to death from the abdominal aorta and caudal vena cava under ether anesthesia after 1 hr from the ethanol administration, and the stomach was isolated. […] The length and width of each ulcer were measured under a stereomicroscope, the area was calculated, and the sum thereof was taken as the total ulcer area.
# [2] = tested on: indomethacin-induced small intestinal injury; assay: Indomethacin-induced small intestinal injury model in rats; type: in vivo, rat; settings: SD rats, 30 min before and 6 hr after indomethacin
# From the text: The suppressive effect of compound F on small intestinal injury was investigated using indomethacin-induced small intestinal injury model in rats. Administration of non-steroidal anti-inflammatory drugs (NSAIDs) is known to induce hemorrhagic injury in the small intestine of human.
# Male SD rats, 7 weeks old (Charles River) were purchased, acclimated for 1 week and used for the study. The rats were grouped based on the body weight and subcutaneously administered with indomethacin (SIGMA, Lot No. 19F0018) at 15 mg/5 mL/kg to all groups to induce small intestinal injury. Compound F at doses of 0.01, 0.1 and 1 mg/kg was orally administered at a volume of 5 mL/kg 30 min before and 6 hr after the subcutaneous administration of indomethacin. To the control group was orally administered a solvent (1 vol % ethanol solution) at 5 mL/kg in the same manner. Eight animals were used for each group.
# The rats were intravenously administered with 2 mL of 10 mg/mL Evans blue solution under ether anesthesia 23.5 hr after the indomethacin administration. After 30 min, the rats were bled to death from the abdominal aorta and caudal vena cava under ether anesthesia and the small intestine was isolated. […] The length and width of each ulcer were measured under a stereomicroscope, the area was calculated, and the sum thereof was taken as the total ulcer area.
# [3] = tested on: dextran sodium sulfate-induced colitis; assay: Dextran sodium sulfate-induced colitis in rats, prophylactic; type: in vivo, rat; settings: SD rats, 5.5 w/v % DSS, oral 1 mg/kg and 3 mg/kg once a day
# Procedure: Prophylactic effect of compound F on colitis was also studied in rats. Male SD rats, 7 weeks old, body weight around 210 g-240 g (Charles River) were purchased, acclimated for 1 week and used for the study. Except the normal group, the rats were allowed to freely drink a DSS (MP Biochemicals, M.W. 36,000-50,000, Lot No. 4556J) solution prepared to 5.5 w/v % for 8 days to induce colitis. Compound F at doses of 0.3, 1 and 3 mg/kg was orally administered once a day, daily, from one day before the start day of DSS drinking to one day before autopsy (day 7). To the control group was orally administered a solvent (1 vol % ethanol solution) at 5 mL/kg.
# On day 8 from the start of DSS drinking, 1.25 w/v % Evans blue solution was administered at 0.2 mL/100 g from the tail vein. After 30 min, the rats were subjected to laparotomy under ether anesthesia and exsanguinated to death. Thereafter, the large intestine was dissected from just below the cecum to the anus, and the length was measured with a scale. […] The next day, the dry weight was measured, formamide (2 mL) was added, the dye was extracted at 50° C. overnight, and the level thereof was measured at 620 nm. A standard curve was prepared using an Evans blue standard solution, and the amount (mg) of Evans blue in 1 g of the colonic tissue was calculated to estimate degree of colonic tissue injury. […]
structure (smiles),measurement,setting,value
"Cc1cccc([C@@H](C)[C@H](O)/C=C/[C@@H]2[C@@H]3[C@H](C[C@H]2O)O/C(=C\CCCc2nnn[nH]2)C3(F)F)c1 [Compound F, 4-[(Z)-(1S,5R,6R,7R)-6-[(1E,3R,4R)-3-hydroxy-4-(m-tolyl)-1-pentenyl]-7-hydroxy-2-oxa-4,4-difluoro-bicyclo[3.3.0]octan-3-ylidene]-1-(tetrazol-5-yl)butane]",Local irritant effect on the eye,eye,conjunctival edema and eye closure were observed 1 hr after the instillation in some animals
same,Effect on total ulcer area (stomach),[1]; oral 1 mg/kg,almost completely reduced the area
same,Effect on total ulcer area (stomach),"[1]; oral, from 0.01 mg/kg (0.01, 0.1 and 1 mg/kg)",significantly reduced the total ulcer area in a dose-dependent manner
same,Effect on total ulcer area (small intestine),[2]; oral 1 mg/kg,completely reduced the area
same,Effect on total ulcer area (small intestine),"[2]; oral, from 0.1 mg/kg",significantly reduced the ulcer area in a dose-dependent manner
same,"Effect on stool score, colonic tissue injury and shortening of the large intestine",[3],suppressive tendency or significant suppressive effect
